{"source": "paper PMC3475447", "about": "(Bioscience Reports, 2012)", "molecular_target": "T1, ATPBD of A. fulgidus CopB (Strep-tagged) (Archaeoglobus fulgidus, UniProt O30085)", "T1 sequence (O30085 372-636)": "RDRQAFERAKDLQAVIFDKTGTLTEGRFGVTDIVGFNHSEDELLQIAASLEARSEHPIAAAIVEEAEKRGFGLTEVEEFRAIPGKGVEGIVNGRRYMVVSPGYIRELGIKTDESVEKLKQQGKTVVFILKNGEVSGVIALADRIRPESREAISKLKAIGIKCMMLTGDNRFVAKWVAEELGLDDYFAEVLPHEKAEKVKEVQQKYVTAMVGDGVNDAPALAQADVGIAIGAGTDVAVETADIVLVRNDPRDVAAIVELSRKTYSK", "assay": "biochemical"}
{"smiles": "Nc1ncnc2c1ncn2[C@@H]1O[C@H](COP(=O)(O)OP(=O)(O)OP(=O)(O)O)[C@@H](O)[C@H]1O", "note": "[ATP]", "values": [{"measurement": "Kd", "result": "34 ± 2", "unit": "µM"}]}
